Test system: 616215-338-R-J1-PDC tumor spheroids, viability
Experiment: Anticancer human tumor 616215-338-R-J1-PDC patient-derived colon adenocarcinoma cell line growth inhibition [GQUAD]
Settings: spheroids with HUVEC and MSC; for IC50: curve of first compound; for viability, T/C: stronger effect = lower value
Method in brief: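 Tumor cells were grown as complex spheroids with HUVEC endothelial cells and mesenchymal stem cells as stroma. G-quadruplex stabilizers were combined with targeted agents over half-log dilutions from near the clinical Cmax, or from 10 microM.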

[1] = second compound 0.0316 µM, first compound 0.0316 µM
[2] = second compound 0.0316 µM, first compound 0.1 µM
[3] = second compound 0.0316 µM, first compound 0.316 µM
[4] = second compound 0.0316 µM, first compound 1 µM
[5] = second compound 0.0316 µM, first compound 3.16 µM
[6] = second compound 0.0316 µM, first compound 10 µM
[7] = second compound 0.1 µM, first compound 0.0316 µM
[8] = second compound 0.1 µM, first compound 0.1 µM
[9] = second compound 0.1 µM, first compound 0.316 µM
[10] = second compound 0.1 µM, first compound 1 µM
[11] = second compound 0.1 µM, first compound 3.16 µM
[12] = second compound 0.1 µM, first compound 10 µM
[13] = second compound 0.316 µM, first compound 0.0316 µM
[14] = second compound 0.316 µM, first compound 0.1 µM
[15] = second compound 0.316 µM, first compound 0.316 µM
[16] = second compound 0.316 µM, first compound 1 µM
[17] = second compound 0.316 µM, first compound 3.16 µM
[18] = second compound 0.316 µM, first compound 10 µM
[19] = second compound 1 µM, first compound 0.0316 µM
[20] = second compound 1 µM, first compound 0.1 µM
[21] = second compound 1 µM, first compound 0.316 µM
[22] = second compound 1 µM, first compound 1 µM
[23] = second compound 1 µM, first compound 3.16 µM
[24] = second compound 1 µM, first compound 10 µM
[25] = second compound 3.16 µM, first compound 0.0316 µM
[26] = second compound 3.16 µM, first compound 0.1 µM
[27] = second compound 3.16 µM, first compound 0.316 µM
[28] = second compound 3.16 µM, first compound 1 µM
[29] = second compound 3.16 µM, first compound 3.16 µM
[30] = second compound 3.16 µM, first compound 10 µM
[31] = second compound 10 µM, first compound 0.0316 µM
[32] = second compound 10 µM, first compound 0.1 µM
[33] = second compound 10 µM, first compound 0.316 µM
[34] = second compound 10 µM, first compound 1 µM
[35] = second compound 10 µM, first compound 3.16 µM
[36] = second compound 10 µM, first compound 10 µM
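Also: spheroids exposed to agents for 7 days before readout.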
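For viability, T/C in this document: percent viability relative to DMSO vehicle control wells taken as 100%.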

Work on C=CC(=O)N1CCN(c2nc(=O)n(-c3c(C)ccnc3C(C)C)c3nc(-c4c(O)cccc4F)c(F)cc23)C(C)C1 (stereo unspecified) + Cc1[nH]c2ccc(F)cc2c1-c1nc2c3cccnc3c3ncccc3c2[nH]1 yielded an IC50 (second compound 0.0316 µM) of over 10000 nM, an IC50 (second compound 0.1 µM) of over 10000 nM and an IC50 (second compound 0.316 µM) of over 10000 nM. For the same compound, the IC50 (second compound 1 µM) was over 10000 nM, the IC50 (second compound 3.16 µM) was over 10000 nM and the IC50 (second compound 10 µM) was over 10000 nM. For the same compound, the viability, T/C [1] was 102%, the viability, T/C [2] was 95% and the viability, T/C [3] was 97.3%. It also gave a viability, T/C [4] of 104%, a viability, T/C [5] of 89.7% and a viability, T/C [6] of 82.1%. It also gave a viability, T/C [7] of 102%, a viability, T/C [8] of 92.5% and a viability, T/C [9] of 102%. For the same compound, the viability, T/C [10] was 96.9%, the viability, T/C [11] was 93.9% and the viability, T/C [12] was 71.6%. For the same compound, the viability, T/C [13] was 87.4%, the viability, T/C [14] was 98.6% and the viability, T/C [15] was 96.8%. The viability, T/C [16] was 108%, the viability, T/C [17] was 88.6% and the viability, T/C [18] was 67.7%. For the same compound, the viability, T/C [19] was 99.7%, the viability, T/C [20] was 93.2% and the viability, T/C [21] was 90.8%. The viability, T/C [22] was 105%, the viability, T/C [23] was 92.5% and the viability, T/C [24] was 71.8%. It also gave a viability, T/C [25] of 100%, a viability, T/C [26] of 88.2% and a viability, T/C [27] of 107%. It also gave a viability, T/C [28] of 88.3%, a viability, T/C [29] of 87.6% and a viability, T/C [30] of 59.1%. It also gave a viability, T/C [31] of 99.7%, a viability, T/C [32] of 84.9% and a viability, T/C [33] of 88%. It also gave a viability, T/C [34] of 90.2%, a viability, T/C [35] of 86.2% and a viability, T/C [36] of 69.2%.
CC[C@@]1(O)C(=O)OCc2c1cc1n(c2=O)Cc2cc3c(CN(C)C)c(O)ccc3nc2-1 + CN(C)c1ccc(Nc2c3ccc(NC(=O)CCN4CCCC4)cc3nc3cc(NC(=O)CCN4CCCC4)ccc23)cc1 was tested, and the IC50 (second compound 0.0316 µM) was 282 nM, the IC50 (second compound 0.1 µM) was 251 nM and the IC50 (second compound 0.316 µM) was 230 nM. The IC50 (second compound 1 µM) was 272 nM, the IC50 (second compound 3.16 µM) was 263 nM and the IC50 (second compound 10 µM) was 183 nM. For the same compound, the viability, T/C (second compound 0.0316 µM, first compound 0.000999 µM) was 97.5%, the viability, T/C (second compound 0.0316 µM, first compound 0.00316 µM) was 98.9% and the viability, T/C (second compound 0.0316 µM, first compound 0.00999 µM) was 98%. The viability, T/C [1] was 105%, the viability, T/C (second compound 0.0316 µM, first compound 0.0999 µM) was 87.9% and the viability, T/C [3] was 45.9%. For the same compound, the viability, T/C (second compound 0.1 µM, first compound 0.000999 µM) was 93.5%, the viability, T/C (second compound 0.1 µM, first compound 0.00316 µM) was 101% and the viability, T/C (second compound 0.1 µM, first compound 0.00999 µM) was 101%. It also gave a viability, T/C [7] of 101%, a viability, T/C (second compound 0.1 µM, first compound 0.0999 µM) of 87.2% and a viability, T/C [9] of 40.5%. The viability, T/C (second compound 0.316 µM, first compound 0.000999 µM) was 113%, the viability, T/C (second compound 0.316 µM, first compound 0.00316 µM) was 94.5% and the viability, T/C (second compound 0.316 µM, first compound 0.00999 µM) was 98.5%. It also gave a viability, T/C [13] of 105%, a viability, T/C (second compound 0.316 µM, first compound 0.0999 µM) of 85.2% and a viability, T/C [15] of 36.4%. It also gave a viability, T/C (second compound 1 µM, first compound 0.000999 µM) of 105%, a viability, T/C (second compound 1 µM, first compound 0.00316 µM) of 100% and a viability, T/C (second compound 1 µM, first compound 0.00999 µM) of 96.2%. It also gave a viability, T/C [19] of 101%, a viability, T/C (second compound 1 µM, first compound 0.0999 µM) of 87.4% and a viability, T/C [21] of 44.1%. The viability, T/C (second compound 3.16 µM, first compound 0.000999 µM) was 97.9%, the viability, T/C (second compound 3.16 µM, first compound 0.00316 µM) was 86.8% and the viability, T/C (second compound 3.16 µM, first compound 0.00999 µM) was 96.7%. It also gave a viability, T/C [25] of 95.2%, a viability, T/C (second compound 3.16 µM, first compound 0.0999 µM) of 93.1% and a viability, T/C [27] of 41.8%. For the same compound, the viability, T/C (second compound 10 µM, first compound 0.000999 µM) was 90.2%, the viability, T/C (second compound 10 µM, first compound 0.00316 µM) was 91% and the viability, T/C (second compound 10 µM, first compound 0.00999 µM) was 95.8%. For the same compound, the viability, T/C [31] was 85.3%, the viability, T/C (second compound 10 µM, first compound 0.0999 µM) was 74.5% and the viability, T/C [33] was 28.1%.
With C#Cc1c(F)ccc2cc(O)cc(-c3ncc4c(N5CC6CCC(C5)N6)nc(OCC56CCCN5CC(F)C6)nc4c3F)c12 (stereo unspecified) + Cc1cnc(CNC(=O)c2c(=O)c3ccc(N4CCCN(C)CC4)nc3n3c2sc2ccccc23)cn1 the IC50 (second compound 0.0316 µM) was 4510 nM, the IC50 (second compound 0.1 µM) was 422 nM and the IC50 (second compound 0.316 µM) was under 31.6 nM. For the same compound, the IC50 (second compound 1 µM) was under 31.6 nM, the IC50 (second compound 3.16 µM) was 43.6 nM and the IC50 (second compound 10 µM) was under 31.6 nM. For the same compound, the viability, T/C [1] was 98.8%, the viability, T/C [2] was 88.4% and the viability, T/C [3] was 103%. It also gave a viability, T/C [4] of 67.6%, a viability, T/C [5] of 63.8% and a viability, T/C [6] of 27.8%. It also gave a viability, T/C [7] of 64.3%, a viability, T/C [8] of 64.2% and a viability, T/C [9] of 51.9%. For the same compound, the viability, T/C [10] was 40.2%, the viability, T/C [11] was 28.7% and the viability, T/C [12] was 22.1%. It also gave a viability, T/C [13] of 38.8%, a viability, T/C [14] of 40.5% and a viability, T/C [15] of 48.3%. The viability, T/C [16] was 40.8%, the viability, T/C [17] was 39.2% and the viability, T/C [18] was 19%. It also gave a viability, T/C [19] of 34.7%, a viability, T/C [20] of 27.1% and a viability, T/C [21] of 40.9%. The viability, T/C [22] was 19.8%, the viability, T/C [23] was 20.8% and the viability, T/C [24] was 20.4%. The viability, T/C [25] was 58.3%, the viability, T/C [26] was 27.7% and the viability, T/C [27] was 24.1%. For the same compound, the viability, T/C [28] was 15.6%, the viability, T/C [29] was 18.8% and the viability, T/C [30] was 7.2%. For the same compound, the viability, T/C [31] was 21%, the viability, T/C [32] was 18.5% and the viability, T/C [33] was 22.3%. It also gave a viability, T/C [34] of 16.8%, a viability, T/C [35] of 14.8% and a viability, T/C [36] of 14.6%.
